# Measurements reported in US20230094922A1, “METHODS OF THERAPEUTIC PROGNOSTICATION” (GENETIKAPLUS LTD., priority 2020, published 2023).
# Test system: iPSC-derived cortical neurons
# Assay type: cell-based
# [1] = responders vs non-responders after 10 μM Bupropion, NS
structure (smiles),measurement,setting,value
"CC(NC(C)(C)C)C(=O)c1cccc(Cl)c1 (stereo not drawn) [Bupropion, 3-Chloro-N-tert-butyl-β-keto-α-methylphenethylamin]",number of genes significantly downregulated in responders as compared to non-responders,"10 μm Bupropion, p<0.01, Table 4",174 genes
same,number of genes significantly upregulated in responders as compared to non-responders after treatment,"10 μm Bupropion, p<0.01, over 60,000 genes probed",69 genes
same,logFC ABLIM2,[1],−1.305
same,logFC ABLIM3,[1],−2.05
same,logFC ACTL6B,[1],−1.577
same,logFC ADCY1,[1],−1.308
same,logFC ADCY5,[1],−1.299
same,logFC ADCYAP1R1,[1],−1.154
same,logFC ADD2,[1],−0.7958
same,logFC ADGRB3,[1],−1.496
same,logFC ADRA1B,[1],−2.202
same,logFC AGAP2,[1],−1.343
same,logFC AK5,[1],−1.456
same,logFC AKAP6,[1],−1.215
same,logFC AKR1C2,[1],−1.478
same,logFC ALPK3,[1],−1.224
same,logFC AMER3,[1],−1.722
same,logFC ANK1,[1],−1.875
same,logFC ANK2,[1],−0.959
same,logFC ANK3,[1],−1.262
same,logFC ANKH,[1],−0.9269
same,logFC ANKRD30BL,[1],−2.897
same,logFC ANKRD53,[1],−1.517
same,logFC ANKRD55,[1],−1.879
same,logFC AP3B2,[1],−1.482
same,logFC APBB1,[1],−0.8199
same,logFC APC,[1],−0.916
same,logFC APLP1,[1],−1.076
same,logFC ARHGAP20,[1],−2.01
same,logFC ARHGAP26,[1],−0.7629
same,logFC ARHGAP33,[1],−0.9502
same,logFC ARHGAP36,[1],−2.569
same,logFC ARPP21,[1],−3.247
same,logFC ASB8,[1],−0.7127
same,logFC ASIC4,[1],−1.72
same,logFC ATAT1,[1],−0.8189
same,logFC ATCAY,[1],−1.047
same,logFC ATP1A3,[1],−1.336
same,logFC ATP2B3,[1],−1.771
same,logFC ATP6V0A1,[1],−0.6012
same,logFC ATP6V0E2,[1],−1.011
same,logFC B3GALNT1,[1],−2.052
same,logFC B3GALT2,[1],−1.685
same,logFC BASP1,[1],−0.8607
same,logFC BINI,[1],−0.8522
same,logFC BMERB1,[1],−0.8373
same,logFC BRINP1,[1],−1.623
same,logFC BRSK1,[1],−0.753
same,logFC BSN,[1],−1.599
same,logFC C1orf216,[1],−1.465
same,logFC C4orf50,[1],−1.94
same,logFC CA10,[1],−2.576
same,logFC CACNA1B,[1],−1.253
same,logFC CACNB1,[1],−1.261
same,logFC CACNB3,[1],−0.6878
same,logFC CACNG2,[1],−1.666
same,logFC CACNG3,[1],−1.337
same,logFC CADM3,[1],−1.659
same,logFC CADM4,[1],−0.6745
same,logFC CALB2,[1],−1.647
same,logFC CAMK1D,[1],−0.9513
same,logFC CAMK2B,[1],−1.689
same,logFC CAMSAP3,[1],−0.8932
same,logFC CASKIN1,[1],−0.9781
same,logFC CCDC141,[1],−2.886
same,logFC CCDC184,[1],−1.385
same,logFC CDH7,[1],−1.611
same,logFC CDH12,[1],−2.03
same,logFC CDK5R1,[1],−1.375
same,logFC CELF3,[1],−1.26
same,logFC CELF4,[1],−1.812
same,logFC CEP170B,[1],−0.6703
same,logFC CEP295NL,[1],−1.321
same,logFC CHGA,[1],−1.543
same,logFC CHGB,[1],−1.246
same,logFC CHRFAM7A,[1],−1.645
same,logFC CHRM2,[1],−2.12
same,logFC CHRNA1,[1],−2.49
same,logFC CHRNA4,[1],−1.718
same,logFC CHRNB2,[1],−1.815
same,logFC CHST1,[1],−1.711
same,logFC CLASP2,[1],−0.7536
same,logFC CLCN4,[1],−0.8168
same,logFC CLDN5,[1],−1.453
same,logFC CLIP2,[1],−0.856
same,logFC CLSTN3,[1],−0.8161
same,logFC CMIP,[1],−0.6391
same,logFC CNTN1,[1],−1.722
same,logFC CORO2B,[1],−1.199
same,logFC CPLX1,[1],−1.467
same,logFC CPLX2,[1],−1.647
same,logFC CRB1,[1],−1.691
same,logFC CREG2,[1],−1.282
same,logFC CRMP1,[1],−1.121
same,logFC CSMD1,[1],−1.31
same,logFC CTNND2,[1],−1.034
same,logFC CXCL11,[1],−2.544
same,logFC CYGB,[1],−1.896
same,logFC DAAM1,[1],−0.6945
same,logFC DBNDD1,[1],−0.8117
same,logFC DCLK2,[1],−1.477
same,logFC DES,[1],−2.44
same,logFC DIRAS1,[1],−1.66
same,logFC DIRAS2,[1],−1.952
same,logFC DISP2,[1],−1.757
same,logFC DKK3,[1],−1.052
same,logFC DMTN,[1],−1.522
same,logFC DOK5,[1],−1.085
same,logFC DPF1,[1],−1.34
same,logFC DPP10,[1],−1.13
same,logFC DPYSL4,[1],−1.082
same,logFC DRD2,[1],−1.595
same,logFC DSCAML1,[1],−1.404
same,logFC DTX1,[1],−1.204
same,logFC EBF1,[1],−1.335
same,logFC ELAVL4,[1],−1.326
same,logFC ELFN2,[1],−1.113
same,logFC EPB41L1,[1],−0.9134
same,logFC EPHA8,[1],−1.345
same,logFC ERAP2,[1],−2.32
same,logFC ETFB,[1],−1.045
same,logFC EVI5L,[1],−0.9714
same,logFC EYA1,[1],−0.8128
same,logFC F7,[1],−1.608
same,logFC FAIM2,[1],−1.923
same,logFC FAM131B,[1],−0.8962
same,logFC FAM219A,[1],−0.8506
same,logFC FAM222A,[1],−1.164
same,logFC FAR2,[1],−1.384
same,logFC FAXC,[1],−0.9556
same,logFC FBXO41,[1],−0.97
same,logFC FGF14,[1],−1.149
same,logFC FMN2,[1],−1.148
same,logFC FRMD5,[1],−0.7871
same,logFC FRMPD4,[1],−2.13
same,logFC FSTL4,[1],−1.8
same,logFC FSTL5,[1],−1.624
same,logFC GABBR2,[1],−2.251
same,logFC GABRG3,[1],−1.687
same,logFC GABRR1,[1],−2.904
same,logFC GAD2,[1],−1.46
same,logFC GALNT9,[1],−1.69
same,logFC GALNTL6,[1],−1.861
same,logFC GAP43,[1],−1.304
same,logFC GCK,[1],−1.587
same,logFC GDPD5,[1],−1.245
same,logFC GFOD1,[1],−1.12
same,logFC GLRA1,[1],−2.174
same,logFC GLRA2,[1],−1.929
same,logFC GLRA3,[1],−3.119
same,logFC GMIP,[1],−0.765
same,logFC GNAO1,[1],−1.181
same,logFC GOLGA7B,[1],−1.854
same,logFC GPR26,[1],−2.221
same,logFC GPR139,[1],−1.695
same,logFC GPR158,[1],−1.27
same,logFC GPRIN1,[1],−1.521
same,logFC GPSM1,[1],−0.733
same,logFC GRIA4,[1],−1.263
same,logFC GRIK2,[1],−1.1
same,logFC GRIN1,[1],−1.919
same,logFC HECW1,[1],−1.709
same,logFC HERC1,[1],−0.5953
same,logFC HID1,[1],−0.975
same,logFC HK1,[1],−0.5528
same,logFC HRH3,[1],−1.315
same,logFC HTR5A,[1],−2.98
same,logFC IFI27,[1],−1.463
same,logFC IFIT5,[1],−0.8218
same,logFC IGLON5,[1],−0.9869
same,logFC IGSF8,[1],−0.6614
same,logFC INA,[1],−1.425
same,logFC INSM1,[1],−1.183
same,logFC ISL1,[1],−2.075
same,logFC ISLR2,[1],−2.565
same,logFC JAKMIP1,[1],−1.737
same,logFC KBTBD11,[1],−1.03
same,logFC KCNA2,[1],−1.235
same,logFC KCNC2,[1],−2.213
same,logFC KCNH6,[1],−1.966
same,logFC KCNIP1,[1],−1.502
same,logFC KCNJ3,[1],−1.979
same,logFC KCNJ6,[1],−1.811
same,logFC KCNJ9,[1],−1.383
same,logFC KCNK3,[1],−2.03
same,logFC KCNQ2,[1],−1.053
same,logFC KCNS2,[1],−2.976
same,logFC KIAA0513,[1],−1.005
same,logFC KIAA1755,[1],−1.809
same,logFC KIF3C,[1],−1.295
same,logFC KIF5A,[1],−1.285
same,logFC KIFAP3,[1],−0.9071
same,logFC KIRREL3,[1],−1.338
same,logFC KLHL1,[1],−2.102
same,logFC LG14,[1],−0.9845
same,logFC LGI2,[1],−1.253
same,logFC LGI3,[1],−2.434
same,logFC LHFPL4,[1],−1.28
same,logFC LMTK3,[1],−0.9148
same,logFC LRATD1,[1],−1.429
same,logFC LRFN2,[1],−1.645
same,logFC LRRC4C,[1],−1.523
same,logFC LRRC7,[1],−1.643
same,logFC LRRC55,[1],−1.342
same,logFC LRRTM2,[1],−1.587
same,logFC LSM11,[1],−0.7282
same,logFC LZTS1,[1],−1.332
same,logFC MAP1A,[1],−1.103
same,logFC MAPK8IP2,[1],−1.461
same,logFC MAPRE2,[1],−0.7432
same,logFC MAST1,[1],−1.276
same,logFC MFNG,[1],−1.262
same,logFC MFSD6,[1],−1.112
same,logFC MKRN3,[1],−1.448
same,logFC MPO,[1],−2.163
same,logFC MPP3,[1],−1.029
same,logFC MRAS,[1],−0.5698
same,logFC MTMR7,[1],−1.1
same,logFC MTSS1,[1],−0.9406
same,logFC MX1,[1],−1.291
same,logFC MXRA7,[1],−0.6421
same,logFC MYL1,[1],−4.411
same,logFC NACAD,[1],−0.8329
same,logFC NAP1L5,[1],−0.871
same,logFC NCAM1,[1],−1.37
same,logFC NCAM2,[1],−1.147
same,logFC NDRG4,[1],−1.32
same,logFC NECAP1,[1],−0.6044
same,logFC NEGR1,[1],−1.829
same,logFC NFASC,[1],−1.15
same,logFC NHLH1,[1],−1.305
same,logFC NHLH2,[1],−2.363
same,logFC NKAIN4,[1],−0.8753
same,logFC NMNAT2,[1],−1.044
same,logFC NOVAI,[1],−0.9754
same,logFC NPAS3,[1],−1.402
same,logFC NPM2,[1],−1.674
same,logFC NR1I3,[1],−1.278
same,logFC NRSN1,[1],−1.718
same,logFC NRXN1,[1],−1.372
same,logFC NSG1,[1],−1.704
same,logFC NSG2,[1],−1.942
same,logFC NTM,[1],−1.35
same,logFC NTNG1,[1],−1.193
same,logFC NWD2,[1],−2.251
same,logFC NXPH4,[1],−1.744
same,logFC NYAP1,[1],−0.9844
same,logFC NYAP2,[1],−2.578
same,logFC OLFM2,[1],−1.002
same,logFC OTUD7A,[1],−1.036
